Measured values taken from patent publication US20030229451A1, “Methods and systems for analyzing complex biological systems” (priority 2001, published 2003).

System: Saccharomyces cerevisiae wild type strain BY4743
Assay: AF1 metabolite analysis (GC-MS, LC-MS) of yeast cells treated with antifungal drugs
Assay type: cell-based
Conditions: for # Compounds perturbed: 2x MIC, two hours; for Fold Change of NacetylDglucosamine: metabolite NacetylDglucosamine; for Fold Change of NacetylLglutamate: metabolite NacetylLglutamate; for Fold Change of NacetylLornithine: metabolite NacetylLornithine; for Fold Change of nicotinic acid: metabolite nicotinic acid; for Fold Change of nopaline: metabolite nopaline; for Fold Change of oleic acid: metabolite oleic acid; for Fold Change of ornithine: metabolite ornithine; for Fold Change of phenylalanine: metabolite phenylalanine; for Fold Change of phosphoenolpyruvate: metabolite phosphoenolpyruvate; for Fold Change of pipecolic acid: metabolite pipecolic acid; for Fold Change of proline: metabolite proline; for Fold Change of pyridoxine: metabolite pyridoxine; for Fold Change of selenoDLmethionine: metabolite selenoDLmethionine; for Fold Change of serine: metabolite serine; for Fold Change of sugar-phosphate: metabolite sugar-phosphate; for Fold Change of tetradecanoic acid: metabolite tetradecanoic acid; for Fold Change of threonine/homoserin: metabolite threonine/homoserin; for Fold Change of thymine: metabolite thymine; for Fold Change of tryptophan: metabolite tryptophan; for Fold Change of tyrosine: metabolite tyrosine; for Fold Change of urocanic acid: metabolite urocanic acid; for Fold Change of valine: metabolite valine; for Fold Change of zeatin: metabolite zeatin

## CC[C@@H]([C@H](C)O)n1ncn(-c2ccc(N3CCN(c4ccc(OC[C@@H]5CO[C@@](Cn6cncn6)(c6ccc(F)cc6F)C5)cc4)CC3)cc2)c1=O [Posaconazole]
P < 0.05
  # Compounds perturbed: 3
P < 0.1
  # Compounds perturbed: 4
Metabolite 2-ketobutyric acid, platform nLC
  Fold Change: −0.9992
Metabolite 2-ketoglutaric, platform nLC
  Fold Change: 11.33
Metabolite 3-indolylacetonitri, platform nLC
  Fold Change: −0.9998
Metabolite 4-aminobenzoic acid, platform pLC
  Fold Change: 0
Metabolite 4-methylcatechol, platform nLC
  Fold Change: 0
Metabolite 4-methylcatechol, platform pLC
  Fold Change: 0
Metabolite 4ambutyrate/dimglyc, platform pLC
  Fold Change: 31.37
Metabolite 4aminobutyrate/dimg, platform nLC
  Fold Change: −0.008939
Metabolite 5hydroxyLtryptophan, platform nLC
  Fold Change: 0
Metabolite 5hydroxyLtryptophan, platform pLC
  Fold Change: 0
Metabolite 6-benzylaminopurine, platform nLC
  Fold Change: 0
Metabolite 6benzylaminopurine, platform pLC
  Fold Change: 0
Metabolite DLaminoadipic acid, platform nLC
  Fold Change: −0.9935
Platform nLC
  Fold Change of NacetylDglucosamine: 0
  Fold Change of NacetylLglutamate: −0.07165
  Fold Change of NacetylLornithine: 0
  Fold Change of nicotinic acid: 1.421
  Fold Change of nopaline: 0.7554
  Fold Change of oleic acid: 0.5606
  Fold Change of ornithine: 2.314
  Fold Change of phenylalanine: −0.03702
  Fold Change of phosphoenolpyruvate: 0
  Fold Change of pipecolic acid: 0.1806
  Fold Change of proline: 0.3147
  Fold Change of pyridoxine: −0.1015
  Fold Change of selenoDLmethionine: −0.6722
  Fold Change of serine: 0.152
  Fold Change of sugar-phosphate: −0.04543
  Fold Change of tetradecanoic acid: 1.029
  Fold Change of threonine/homoserin: 0.04034
  Fold Change of thymine: 0
  Fold Change of tryptophan: 4.676
  Fold Change of tyrosine: 0.0282
  Fold Change of urocanic acid: 0
  Fold Change of valine: 0.0195
  Fold Change of zeatin: 0
Platform pLC
  Fold Change of NacetylDglucosamine: 0
  Fold Change of NacetylLglutamate: 0
  Fold Change of NacetylLornithine: 0.1338
  Fold Change of nicotinic acid: −0.8142
  Fold Change of nopaline: 0
  Fold Change of ornithine: 0.4314
  Fold Change of phenylalanine: −0.1585
  Fold Change of phosphoenolpyruvate: 0
  Fold Change of pipecolic acid: 0.3444
  Fold Change of proline: 0.3157
  Fold Change of pyridoxine: −0.239
  Fold Change of selenoDLmethionine: −0.7083
  Fold Change of serine: 0.2417
  Fold Change of sugar-phosphate: 0
  Fold Change of threonine/homoserin: 0.1437
  Fold Change of thymine: 0
  Fold Change of tryptophan: 0
  Fold Change of tyrosine: 0.1008
  Fold Change of urocanic acid: 0
  Fold Change of zeatin: 0
Metabolite TMS mevalonic acid lactone, platform GC
  Fold Change of TMS mevalonic acid lactone: −0.3118
Metabolite abscisic acid, platform nLC
  Fold Change: 0
Metabolite abscisic acid, platform pLC
  Fold Change: 0
Metabolite aconitic acid, platform nLC
  Fold Change: 1.874
Metabolite adenine, platform nLC
  Fold Change: 0
Metabolite adenine, platform pLC
  Fold Change: −0.0145
Metabolite adenosine, platform nLC
  Fold Change: 128.3
Metabolite adenosine, platform pLC
  Fold Change: 0
Metabolite alanine/sarcosine, platform pLC
  Fold Change: 0.1013
Metabolite alanine, platform GC
  Fold Change: 1.035
Metabolite alanine, platform nLC
  Fold Change: 0.1091
Metabolite allantoic acid, platform nLC
  Fold Change: 0.3321
Metabolite allantoic acid, platform pLC
  Fold Change: 0
Metabolite allantoin, platform nLC
  Fold Change: 5.97
Metabolite anthranillic acid, platform nLC
  Fold Change: 0
Metabolite anthranillic acid, platform pLC
  Fold Change: 0
Metabolite arginine, platform nLC
  Fold Change: 0.1707
Metabolite arginine, platform pLC
  Fold Change: 0.03383
Metabolite argininosuccinate, platform nLC
  Fold Change: 318.3
Metabolite argininosuccinate, platform pLC
  Fold Change: 0
Metabolite asparagine, platform GC
  Fold Change: 0.145
Metabolite asparagine, platform nLC
  Fold Change: 0.006865
Metabolite asparagine, platform pLC
  Fold Change: 0.4302
Metabolite aspartic acid, platform GC
  Fold Change: −0.071
Metabolite aspartic acid, platform pLC
  Fold Change: 0.3626
Metabolite aspartic, platform nLC
  Fold Change: 0.305
Metabolite benzoic acid, platform nLC
  Fold Change: 0
Metabolite biotin, platform nLC
  Fold Change: −0.9992
Metabolite biotin, platform pLC
  Fold Change: 0
Metabolite caffeic acid, platform nLC
  Fold Change: −0.49
Metabolite caffeine, platform pLC
  Fold Change: 0
Metabolite campesterol, platform GC
  Fold Change: 0
Metabolite catechol, platform nLC
  Fold Change: 0
Metabolite cinnamic acid, platform nLC
  Fold Change: 0
Metabolite citric acid TME, platform pLC
  Fold Change: 0
Metabolite citricanoic/itaconi, platform nLC
  Fold Change: 0
Metabolite citrulline, platform nLC
  Fold Change: 1160
Metabolite citrulline, platform pLC
  Fold Change: 0.1011
Metabolite coumaric acid, platform nLC
  Fold Change: 0
Metabolite cytidine, platform nLC
  Fold Change: −0.9986
Metabolite cytidine, platform pLC
  Fold Change: 0
Metabolite cytosine, platform nLC
  Fold Change: 0
Metabolite cytosine, platform pLC
  Fold Change: 1135
Metabolite decanoic acid, platform nLC
  Fold Change: 0.1263
Metabolite desmosterol, platform GC
  Fold Change: 0
Metabolite diaminopimelic acid, platform nLC
  Fold Change: 0
Metabolite diaminopimelic acid, platform pLC
  Fold Change: 0
Metabolite dihydrofolic acid, platform nLC
  Fold Change: 0
Metabolite dihydrofolic acid, platform pLC
  Fold Change: 0
Metabolite dipicolinic acid, platform pLC
  Fold Change: 0
Metabolite disaccaride1, platform GC
  Fold Change: 0.04733
Metabolite disaccaride2, platform GC
  Fold Change: 0.313
Metabolite disaccaride3, platform GC
  Fold Change: 0.3407
Metabolite mevalonic acid lactone, platform GC
  Fold Change of mevalonic acid lactone: 0.5555
Metabolite mevalonic lactone, platform pLC
  Fold Change of mevalonic lactone: −0.08368
Metabolite niacinamide, platform pLC
  Fold Change of niacinamide: 0
Metabolite octadecanoic acid, platform GC
  Fold Change of octadecanoic acid: 0.321
Platform GC
  Fold Change of oleic acid: −0.5057
  Fold Change of phenylalanine: 0.06069
  Fold Change of tetradecanoic acid: −0.214
  Fold Change of valine: 0.345
Metabolite ornithine2, platform GC
  Fold Change of ornithine2: −0.1383
Metabolite ornithine3, platform GC
  Fold Change of ornithine3: 0.041
Metabolite orotic acid, platform nLC
  Fold Change of orotic acid: 0
Metabolite palmiteliadic acid, platform GC
  Fold Change of palmiteliadic acid: −0.2453
Metabolite palmitic acid, platform nLC
  Fold Change of palmitic acid: 0.1518
Metabolite phenylpyruvic acid, platform nLC
  Fold Change of phenylpyruvic acid: 0
Metabolite phosphate, platform GC
  Fold Change of phosphate: −0.1833
Metabolite pinitol, platform nLC
  Fold Change of pinitol: 0
Metabolite porphobilinogen, platform nLC
  Fold Change of porphobilinogen: 0
Metabolite progesterone, platform pLC
  Fold Change of progesterone: 0
Metabolite pyrimidine, platform GC
  Fold Change of pyrimidine: 0.159
Metabolite retinoic acid, platform nLC
  Fold Change of retinoic acid: 0
Metabolite riboflavin, platform pLC
  Fold Change of riboflavin: 0
Metabolite salicylic/HObenzoic, platform nLC
  Fold Change of salicylic/HObenzoic: 0
Metabolite shikimic acid, platform nLC
  Fold Change of shikimic acid: 0
Metabolite sinapinic acid, platform nLC
  Fold Change of sinapinic acid: 0
Metabolite sorbitol/mannitol, platform nLC
  Fold Change of sorbitol/mannitol: 0.009121
Metabolite squalene, platform GC
  Fold Change of squalene: 0.07431
Metabolite succinic, platform nLC
  Fold Change of succinic: −0.06141
Metabolite sucrose, platform nLC
  Fold Change of sucrose: 0.1847
Metabolite thiamine, platform pLC
  Fold Change of thiamine: 0
Metabolite threonine2, platform GC
  Fold Change of threonine2: 0.457
Metabolite threonine3, platform GC
  Fold Change of threonine3: 0.225
Metabolite tms glutamine3, platform GC
  Fold Change of tms glutamine3: 0.6709
Metabolite tms lysine4, platform GC
  Fold Change of tms lysine4: 0.05667
Metabolite tms tyrosine2, platform GC
  Fold Change of tms tyrosine2: 1.228
Metabolite tms tyrosine3, platform GC
  Fold Change of tms tyrosine3: 0.1911
Metabolite uracil, platform nLC
  Fold Change of uracil: −0.2779
Metabolite uric acid, platform pLC
  Fold Change of uric acid: 0
Metabolite uridine, platform nLC
  Fold Change of uridine: 0.02855
Metabolite xanthosine(diH2O), platform pLC
  Fold Change of xanthosine(diH2O): 0
Metabolite xanthosineDiH2O, platform nLC
  Fold Change of xanthosineDiH2O: 0
